Experimental data taken from patent publication US20230365592A1 (Agios Pharmaceuticals, Inc., priority 2022, published 2023).

Each molecule was assayed against T1, human PAH with the R408W mutation (Homo sapiens, UniProt P00439, R408W) (assay: Cell Based Phenylalanine Flux Assay). Conditions: A375 cells expressing human R408W PAH; 24 hrs compound incubation; 13C-Tyrosine by LC-MS; average where tested multiple times; read-out: AC50.
T1 construct: expressed in transfected cells
T1 sequence (P00439 1-452 R408W): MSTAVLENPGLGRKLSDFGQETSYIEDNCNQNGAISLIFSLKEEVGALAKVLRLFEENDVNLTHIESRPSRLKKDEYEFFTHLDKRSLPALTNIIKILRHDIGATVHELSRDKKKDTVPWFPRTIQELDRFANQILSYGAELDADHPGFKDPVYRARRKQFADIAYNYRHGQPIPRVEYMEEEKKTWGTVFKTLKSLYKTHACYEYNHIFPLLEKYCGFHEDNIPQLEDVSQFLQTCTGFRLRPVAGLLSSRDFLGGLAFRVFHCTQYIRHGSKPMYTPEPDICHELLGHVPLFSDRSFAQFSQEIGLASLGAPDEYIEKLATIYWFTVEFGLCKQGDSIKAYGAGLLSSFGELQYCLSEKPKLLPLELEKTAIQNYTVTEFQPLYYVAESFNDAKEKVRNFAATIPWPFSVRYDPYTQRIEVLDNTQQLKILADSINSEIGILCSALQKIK
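Note: after compound treatment, cells received sepiapterin plus isotope-labelled Phenylalanine for 4 hours, then labelled Tyrosine in the medium was quantified, 10-point 2-fold dilution series run in duplicate.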

SMILES | AC50 [µM]
CC(C)(O)c1nc(Br)c(C(=O)N2CCc3[nH]cnc3[C@H]2c2cc3c(Cl)cccn3n2)o1 [Example 722, (S)-(4-bromo-2-(2-hydroxypropan-2-yl)oxazol-5-yl)(4-(4-chloropyrazolo[1,5-a]pyridin-2-yl)-6,7-dihydro-1H-imidazo[4,5-c]pyridin-5(4H)-yl)methanone] | < 0.5
CC(C)(O)c1nc(Br)c(C(=O)N2CCc3[nH]cnc3[C@@H]2c2cc3c(Cl)cccn3n2)o1 [Example 723, (R)-(4-bromo-2-(2-hydroxypropan-2-yl)oxazol-5-yl)(4-(4-chloropyrazolo[1,5-a]pyridin-2-yl)-6,7-dihydro-1H-imidazo[4,5-c]pyridin-5(4H)-yl)methanone] | 1 to 5
Cc1nc(C(C)(C)O)oc1C(=O)N1CCc2[nH]cnc2[C@H]1c1cc2c(Cl)cccn2n1 [Example 724, (S)-(4-(4-chloropyrazolo[1,5-a]pyridin-2-yl)-6,7-dihydro-1H-imidazo[4,5-c]pyridin-5(4H)-yl)(2-(2-hydroxypropan-2-yl)-4-methyloxazol-5-yl)methanone] | < 0.5
Cc1nc(C(C)(C)O)oc1C(=O)N1CCc2[nH]cnc2[C@@H]1c1cc2c(Cl)cccn2n1 [Example 725, (R)-(4-(4-chloropyrazolo[1,5-a]pyridin-2-yl)-6,7-dihydro-1H-imidazo[4,5-c]pyridin-5(4H)-yl)(2-(2-hydroxypropan-2-yl)-4-methyloxazol-5-yl)methanone] | > 5
Cc1nc([C@@H](C)O)oc1C(=O)N1CCc2[nH]cnc2[C@H]1c1cc2c(F)cccn2n1 [Example 726, ((S)-4-(4-fluoropyrazolo[1,5-a]pyridin-2-yl)-6,7-dihydro-1H-imidazo[4,5-c]pyridin-5(4H)-yl)(2-((R)-1-hydroxyethyl)-4-methyloxazol-5-yl)methanone] | 0.5 to 1
Cc1nc([C@@H](C)O)oc1C(=O)N1CCc2[nH]cnc2[C@@H]1c1cc2c(F)cccn2n1 [Example 727, ((R)-4-(4-fluoropyrazolo[1,5-a]pyridin-2-yl)-6,7-dihydro-1H-imidazo[4,5-c]pyridin-5(4H)-yl)(2-((R)-1-hydroxyethyl)-4-methyloxazol-5-yl)methanone] | 1 to 5
Cn1cc(-c2nnc(C(=O)N3CCc4[nH]cnc4[C@H]3c3cc4c(F)cccn4n3)o2)cn1 [Example 728, (S)-(4-(4-fluoropyrazolo[1,5-a]pyridin-2-yl)-6,7-dihydro-1H-imidazo[4,5-c]pyridin-5(4H)-yl)(5-(1-methyl-1H-pyrazol-4-yl)-1,3,4-oxadiazol-2-yl)methanone] | < 0.5
Cn1ccc(-c2nnc(C(=O)N3CCc4[nH]cnc4[C@@H]3c3cc4c(F)cccn4n3)o2)n1 [Example 731, (R)-(4-(4-fluoropyrazolo[1,5-a]pyridin-2-yl)-6,7-dihydro-1H-imidazo[4,5-c]pyridin-5(4H)-yl)(5-(1-methyl-1H-pyrazol-3-yl)-1,3,4-oxadiazol-2-yl)methanone] | > 5
O=C(c1nnc(-c2ccccn2)o1)N1CCc2[nH]cnc2[C@H]1c1cc2c(F)cccn2n1 [Example 733, (S)-(4-(4-fluoropyrazolo[1,5-a]pyridin-2-yl)-6,7-dihydro-1H-imidazo[4,5-c]pyridin-5(4H)-yl)(5-(pyridin-2-yl)-1,3,4-oxadiazol-2-yl)methanone] | < 0.5
O=C(c1nnc(-c2ccccn2)o1)N1CCc2[nH]cnc2[C@@H]1c1cc2c(Cl)cccn2n1 [Example 734, (R)-(4-(4-chloropyrazolo[1,5-a]pyridin-2-yl)-6,7-dihydro-1H-imidazo[4,5-c]pyridin-5(4H)-yl)(5-(pyridin-2-yl)-1,3,4-oxadiazol-2-yl)methanone] | > 5
O=C(c1nnc(-c2ccccn2)o1)N1CCc2[nH]cnc2[C@H]1c1cc2c(Cl)cccn2n1 [Example 735, (S)-(4-(4-chloropyrazolo[1,5-a]pyridin-2-yl)-6,7-dihydro-1H-imidazo[4,5-c]pyridin-5(4H)-yl)(5-(pyridin-2-yl)-1,3,4-oxadiazol-2-yl)methanone] | < 0.5
